pIC50: −log10 of the molar value. Calls of active or inactive are those of the source. The rule behind the calls is not given here.
Legend:
[1] = test system: K562; test: Induction of apoptosis in human K562 cells at 10 uM by Annexin V-FITC/propidium iodide staining based flow cytometry; format: functional, cell-based; conditions: TDE = time-dependent effect
[2] = test system: Plasma; test: Induction of nanoparticle formation in rat plasma assessed as nanoparticle size at 10 uM by atomic force microscopy; format: cell-free
[3] = Induction of nanoparticle formation in ultrapure water by transmission electron microscopic method
[4] = test system: K562; test: Induction of apoptosis in human K562 cells assessed as necrotic cells at 10 uM after 12 hrs by Annexin V-FITC/propidium iodide staining based flow cytometry (reference value: 0.6%); format: functional
[5] = test system: K562; test: Induction of apoptosis in human K562 cells assessed as early apoptotic cells at 10 uM after 24 hrs by Annexin V-FITC/propidium iodide staining based flow cytometry (reference value: 3.2%); format: functional
[6] = Induction of nanoparticle formation in ultrapure water assessed as zeta potential at 1 uM under 650 nanometer laser beam irradiation
[7] = test system: Mus musculus; test: Antiinflammatory activity in xylene induced ICR mouse ear edema model assessed as decrease in serum IL2 level at 1 umol/kg, po pretreated for 30 mins followed by xylene administration measured after 2 hrs by ELISA; format: functional, organism-based
[8] = species on record: Bos taurus; test: Binding affinity to calf thymus DNA by UV spectrum analysis
[9] = test system: Plasma; test: Induction of nanoparticle formation in rat plasma by atomic force microscopy; format: cell-free
[10] = test system: HT-29; test: Antiproliferative activity against human HT-29 cells after 48 hrs by MTT assay; format: functional, cell-based; conditions: HT-29, 48 h
[11] = test system: HCT-8; test: Antiproliferative activity against human HCT8 cells after 48 hrs by MTT assay; format: functional, cell-based; conditions: HCT-8, 48 h
[12] = Induction of nanoparticle solid formation assessed as nanoparticle size at 0.1 uM by scanning electron microscopic method
[13] = test system: Mus musculus; test: Potency index, ratio of compound effect to aspirin effect for antiinflammatory activity in ICR mouse assessed as inhibition of xylene-induced ear edema; format: functional
[14] = test system: Mus musculus; test: Downregulation of P-selectin expression in ip dosed ICR mouse serum implanted with mouse S180 cells by ELISA; format: functional, organism-based
[15] = test system: CCRF S-180; test: Antitumor activity against mouse S180 cells implanted in ICR mouse assessed as decrease in tumor weight administered intraperitoneally daily for 10 days and measured after 24 hrs last dose; format: functional
[16] = Induction of nanoparticle formation in ultrapure water assessed as nanoparticle size at 0.1 uM by transmission electron microscopic method
[17] = test system: K562; test: Induction of apoptosis in human K562 cells assessed as live cells at 10 uM after 24 hrs by Annexin V-FITC/propidium iodide staining based flow cytometry (reference value: 94.3%); format: functional
[18] = test system: A549; test: Antiproliferative activity against human A549 cells after 48 hrs by MTT assay; format: functional, cell-based; conditions: A549, 48 h
[19] = test system: K562; test: Antiproliferative activity against human K562 cells after 48 hrs by MTT assay; format: functional, cell-based; conditions: K562, 48 h
[20] = test system: Mus musculus; test: Downregulation of TNFalpha levels in ip dose ICR mouse serum implanted with mouse S180 cells by ELISA; format: functional, organism-based
[21] = Drug uptake in nucleus of human HeLa cells at 40 uM by fluorescence microscopy; format: ADME, cell-based; conditions: TDE = time-dependent effect
[22] = test system: K562; test: Induction of apoptosis in human K562 cells assessed as early apoptotic cells at 10 uM after 12 hrs by Annexin V-FITC/propidium iodide staining based flow cytometry (reference value: 5.1%); format: functional
[23] = Drug uptake in nucleus of human HT-29 cells at 40 uM by fluorescence microscopy; format: ADME; conditions: TDE = time-dependent effect
[24] = Induction of nanoparticle formation in ultrapure water assessed as nanoparticle size at 10 uM by transmission electron microscopic method
[25] = Induction of nanoparticle solid formation by scanning electron microscopic method
[26] = Induction of nanoparticle solid formation assessed as nanoparticle size at 10 uM by scanning electron microscopic method
[27] = test system: K562; test: Induction of apoptosis in human K562 cells assessed as late apoptotic cells at 10 uM after 12 hrs by Annexin V-FITC/propidium iodide staining based flow cytometry (reference value: 1.7%); format: functional
[28] = test system: Mus musculus; test: Antiinflammatory activity in xylene induced ICR mouse ear edema model assessed as decrease in serum TNFalpha level at 1 umol/kg, po pretreated for 30 mins followed by xylene administration measured after 2 hrs by ELISA; format: functional, organism-based
[29] = Induction of nanoparticle formation in ultrapure water assessed as Farady-Tyndall effect at 1 uM
[30] = test system: Plasma; test: Induction of nanoparticle formation in rat plasma assessed as nanoparticle size at 1 uM by atomic force microscopy; format: cell-free
[31] = Induction of nanoparticle formation in ultrapure water assessed as Farady-Tyndall effect at 1 uM under 650 nanometer laser beam irradiation
[32] = Induction of nanoparticle formation in ultrapure water assessed as nanoparticle size at 1 uM under 650 nanometer laser beam irradiation
[33] = test system: Mus musculus; test: Antiinflammatory activity in ICR mouse assessed as inhibition of xylene-induced ear edema at 1 umol/kg, po pretreated for 30 mins followed by xylene administration measured after 2 hrs relative to control; format: functional, organism-based
[34] = test system: CCRF S-180; test: Potency index, ratio of compound effect to doxorubicin effect for antitumor activity against mouse S180 cells implanted in ICR mouse assessed as decrease in tumor weight; format: functional
[35] = Drug uptake in nucleus of human SH-SY5Y cells at 40 uM by fluorescence microscopy; format: ADME; conditions: TDE = time-dependent effect
[36] = Induction of nanoparticle solid formation assessed as nanoparticle size at 1 uM by scanning electron microscopic method
[37] = test system: HL-60; test: Antiproliferative activity against human HL60 cells after 48 hrs by MTT assay; format: functional, cell-based; conditions: HL-60, 48 h
[38] = Induction of nanoparticle formation in ultrapure water assessed as nanoparticle size at 1 uM by transmission electron microscopic method
[39] = test system: HeLa; test: Antiproliferative activity against human HeLa cells after 48 hrs by MTT assay; format: functional, cell-based
[40] = species on record: Bos taurus; test: Binding affinity to calf thymus DNA by CD spectrum analysis
[41] = test system: SH-SY5Y; test: Antiproliferative activity against human SH-SY5Y cells after 48 hrs by MTT assay; format: functional, cell-based
[42] = test system: Plasma; test: Induction of nanoparticle formation in rat plasma assessed as nanoparticle size at 0.1 uM by atomic force microscopy; format: cell-free
[43] = test system: K562; test: Induction of apoptosis in human K562 cells assessed as necrotic cells at 10 uM after 24 hrs by Annexin V-FITC/propidium iodide staining based flow cytometry (reference value: 0.6%); format: functional
[44] = species on record: Bos taurus; test: Binding affinity to calf thymus DNA assessed as fluorescence quenching by measuring bathochromic shift by spectrofluorometric method
[45] = test system: CCRF S-180; test: Antitumor activity against mouse S180 cells implanted in ICR mouse assessed as decrease in tumor size at 0.01 to 1 umol/kg, ip administered daily for 10 days and measured 24 hrs post last dose; format: functional, organism-based
[46] = test system: K562; test: Induction of apoptosis in human K562 cells assessed as live cells at 10 uM after 12 hrs by Annexin V-FITC/propidium iodide staining based flow cytometry (reference value: 91.6%); format: functional
[47] = test system: K562; test: Induction of apoptosis in human K562 cells assessed as late apoptotic cells at 10 uM after 24 hrs by Annexin V-FITC/propidium iodide staining based flow cytometry (reference value: 1.9%); format: functional
[48] = test system: Mus musculus; test: Antiinflammatory activity in ICR mouse assessed as inhibition of xylene-induced ear edema at 16.7 umol/kg, po pretreated for 30 mins followed by xylene administration measured after 2 hrs relative to control; format: functional, organism-based
[49] = test system: CCRF S-180; test: Antitumor activity against mouse S180 cells implanted in ICR mouse assessed as decrease in tumor weight at 2 umol/kg, ip administered daily for 10 days and measured 24 hrs post last dose; format: functional, organism-based

## N=C(NCCC[C@H](NC(=O)c1cc2c(cn1)[nH]c1ccccc12)C(=O)OCc1ccccc1)N[N+](=O)[O-]
[1]
  Activity: Tde
[2]
  Activity: 102 to 109 nm
[3]
  Activity: Dose-dependent effect
[4]
  Activity: 3.5%
[5]
  Activity: 60.7%
[6]
  Activity: -14.2 mV
[7]
  Activity: Active
[8]
  Activity: Dose-dependent effect
[9]
  Activity: Dose-dependent effect
[10]
  pIC50: 4.13 to 4.82
[11]
  pIC50: 4.13 to 4.82
[12]
  Activity: 28.6 to 88.9 nm
[13]
  Ratio: 16.7
[14]
  Activity: Dose-dependent effect
[15]
  Activity: Dose-dependent effect
  MED: 0.01 µmol/kg
[16]
  Activity: 8 to 72.7 nm
[17]
  Activity: 25.5%
[18]
  pIC50: 4.13 to 4.82
[19]
  pIC50: 4.13 to 4.82
[20]
  Activity: Dose-dependent effect
[21]
  Drug uptake: Tde
[22]
  Activity: 14.5%
[23]
  Drug uptake: Tde
[24]
  Activity: 43.9 to 176 nm
[25]
  Activity: Dose-dependent effect
[26]
  Activity: 44.4 to 111 nm
[27]
  Activity: 9%
[28]
  Activity: Active
[29]
  Activity: inactive
[30]
  Activity: 78.5 to 98 nm
[31]
  Activity: Active
[32]
  Activity: 165 nm
[33]
  inhibition: Active
[34]
  Ratio: 2
[35]
  Drug uptake: Tde
[36]
  Activity: 33.3 to 100 nm
[37]
  pIC50: 4.13 to 4.82
[38]
  Activity: 10.8 to 116 nm
[39]
  pIC50: 4.13 to 4.82
[40]
  Activity: Dose-dependent effect
[41]
  pIC50: 4.13 to 4.82
[42]
  Activity: 68.6 to 78.4 nm
[43]
  Activity: 1.4%
[44]
  Activity: Dose-dependent effect
[45]
  Activity: Active
[46]
  Activity: 73%
[47]
  Activity: 12.4%

## CC(=O)Oc1ccccc1C(=O)O
[48]
  inhibition: Active

## COc1cccc2c1C(=O)c1c(O)c3c(c(O)c1C2=O)C[C@@](O)(C(=O)CO)C[C@@H]3O[C@H]1C[C@H](N)[C@H](O)[C@H](C)O1
[49]
  Activity: Active
